# According to patent US8030354B2, “Substituted biphenyl GPR40 modulators” (Amgen Inc., priority 2007, dated 2011):
# Tests used:
# GPR40 [1] = target: T1, GPR40 (Homo sapiens, UniProt O14842); assay: Inositol phosphate accumulation assay (A9_GPR40 cells); type: cell-based; design: expressed in transfected cells; host or cells: CHO cells stably transfected with GPR40 and aequorin; details: inositol phosphate assay, A9_GPR40 cells, 1 hour; read-out: IP3 EC50
# Method in brief: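 [^3H] inositol phosphate accumulation was measured by SPA after 1 h compound exposure at 37° C in HBSS/10 mM LiCl containing HSA, ending with a 20 mM formic acid quench. The GPR40-transfected A9 cells had first been labelled overnight (16 h) with 1 μCi/mL ^3H-inositol.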
# GPR40 [2] = target: T1, GPR40; assay: Cell-based aequorin assay (CHO cells stably expressing GPR40 and aequorin); design: expressed in transfected cells; host or cells: CHO cells stably transfected with GPR40 and aequorin; details: activation of human GPR40, CHO cells, 0.01% HSA
# Method in brief: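 CHO cells stably co-expressing GPR40 and aequorin, loaded with coelenterazine (1 ug/mL, 2 h, room temperature) in H/HBSS with 20 mM Hepes and 0.01% fatty acid-free HSA. Serially diluted compounds added; luminescence recorded over 20 s. EC50 from dose-response of maximum relative light units.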
# T1 sequence (O14842 whole entry): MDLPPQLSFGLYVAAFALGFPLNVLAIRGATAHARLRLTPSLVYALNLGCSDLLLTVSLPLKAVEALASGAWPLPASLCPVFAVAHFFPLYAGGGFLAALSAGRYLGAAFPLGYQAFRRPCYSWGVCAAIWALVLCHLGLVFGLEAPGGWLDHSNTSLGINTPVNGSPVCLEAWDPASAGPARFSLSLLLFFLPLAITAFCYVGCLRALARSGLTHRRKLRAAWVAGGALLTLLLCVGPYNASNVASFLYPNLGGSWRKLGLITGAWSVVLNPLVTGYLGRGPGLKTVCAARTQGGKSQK
EC50 (GPR40 [1]) [nM],EC50 (GPR40 [2]) [nM],SMILES
10 to 100,100 to 1000,"COc1ccc(F)c(-c2ccc(COc3cccc([C@@H](CC(=O)O)CC4CC4)c3)cc2C2CC(C)(C)CC(C)(C)C2)c1 (single isomer, unassigned) [Example 69.32, (3R)-4-Cyclopropyl-3-(3-(((2′-fluoro-5′-(methyloxy)-2-(3,3,5,5-tetramethylcyclohexyl)-1,1′-biphenyl-4-yl)methyl)oxy)phenyl)butanoic acid or (3S)-4-cyclopropyl-3-(3-(((2′-fluoro-5′-(methyloxy)-2-(3,3,5,5-tetramethylcyclohexyl)-1,1′-biphenyl-4-yl)methyl)oxy)phenyl)butanoic acid]"
10 to 100,100 to 1000,"CCOc1ccc(F)c(-c2ccc(COc3cccc(C(CC(=O)O)C4CC4)c3)cc2C2CCCC2(C)C)c1 (single isomer, unassigned) [Example 66.26]"
< 10,10 to 100,"COc1cccc(-c2ccc(COc3cccc(C(CC(=O)O)CC4CC4)c3)cc2C2CCCC2(C)C)c1 (single isomer, unassigned) [Example 69.10]"
< 10,100 to 1000,"COc1ccc(F)c(-c2ccc(COc3cccc(C(CC(=O)O)CC4CC4)c3F)cc2C2CCCC2(C)C)c1 (single isomer, unassigned) [Example 84.3]"
< 10,100 to 1000,"COc1cc(-c2ccc(COc3cccc(C(CC(=O)O)CC4CC4)c3F)cc2C(OC)C(C)(C)C)c(F)cn1 (single isomer, unassigned) [Example 84.9]"
10 to 100,100 to 1000,"CCCC(CC(=O)O)c1cccc(OCc2ccc(-c3cc(OC)ccc3F)c(C3=CCCCCC3)c2)c1 (single isomer, unassigned) [Example 67.6, (3R)-3-(3-(((2-(1-Cyclohepten-1-yl)-2′-fluoro-5′-(methyloxy)-1,1′-biphenyl-4-yl)methyl)oxy)phenyl)hexanoic acid or (3S)-3-(3-(((2-(1-cyclohepten-1-yl)-2′-fluoro-5′-(methyloxy)-1,1′-biphenyl-4-yl)methyl)oxy)phenyl)hexanoic acid]"
10 to 100,100 to 1000,"COc1ccc(F)c(-c2ccc(COc3cccc(C(C)(C)CC(=O)O)c3)cc2C2=CCCC2(C)C)c1 [Example 85.2, 3-{3-[2-(5,5-Dimethyl-cyclopent-1-enyl)-2′-fluoro-5′-methoxy-biphenyl-4-ylmethoxy]-phenyl}-3-methyl-butyric acid]"
10 to 100,100 to 1000,"COc1cccc(-c2ccc(COc3cccc(C(CC(=O)O)CC4CC4)c3)cc2C2=CCCC2(C)C)c1 (single isomer, unassigned) [Example 69.2, (3R)-4-Cyclopropyl-3-(3-(((2-(5,5-dimethyl-1-cyclopenten-1-yl)-3′-(methyloxy)-1,1′-biphenyl-4-yl)methyl)oxy)phenyl)butanoic acid or (3S)-4-cyclopropyl-3-(3-(((2-(5,5-dimethyl-1-cyclopenten-1-yl)-3′-(methyloxy)-1,1′-biphenyl-4-yl)methyl)oxy)phenyl)butanoic acid]"
10 to 100,100 to 1000,"COc1cccc(-c2ccc(COc3cccc(C(CC(=O)O)C4CCC4)c3)cc2C2CCCC2(C)C)c1 (single isomer, unassigned) [Example 79.6]"
< 10,100 to 1000,"COc1ccc(F)c(-c2ccc(COc3cccc(C(CC(=O)O)C4CC4)c3F)cc2C(F)C(C)(C)C)c1 (single isomer, unassigned) [Example 83.9]"
< 10,100 to 1000,"COc1ccc(F)c(-c2ccc(COc3cccc(C(CC(=O)O)CC4CC4)c3F)cc2C2CCCC2(C)C)c1 (single isomer, unassigned) [Example 84.1]"
< 10,100 to 1000,"CCC(C)(C)C(OC)c1cc(COc2cccc(C(CC(=O)O)CC3CC3)c2)ccc1-c1cc(OC)ccc1F (single isomer, unassigned) [Example 69.42]"
< 10,10 to 100,"COc1cc(-c2ccc(COc3cccc(C(CC(=O)O)C4CC4)c3)cc2C2CCCC2(C)C)c(F)cn1 (single isomer, unassigned) [Example 66.36]"
10 to 100,100 to 1000,"COc1ccc(F)c(-c2ccc(COc3cccc(C(C)CC(=O)O)c3)cc2CCC2CCCCC2)c1 (single isomer, unassigned) [Example 64.15, (3R)-3-(3-(((2-(2-Cyclohexylethyl)-2′-fluoro-5′-(methyloxy)-1,1′-biphenyl-4-yl)methyl)oxy)phenyl)butanoic acid or (3S)-3-(3-(((2-(2-cyclohexylethyl)-2′-fluoro-5′-(methyloxy)-1,1′-biphenyl-4-yl)methyl)oxy)phenyl)butanoic acid]"
10 to 100,100 to 1000,"COc1ccc(F)c(-c2ccc(COc3cccc(C(CC(=O)O)C4CC4)c3)cc2CN2C(C)CCCC2C)c1 (single isomer, unassigned) [Example 66.70]"
< 10,100 to 1000,"CCCC(CC(=O)O)c1cccc(OCc2ccc(-c3cccc(OC)c3)c(C3CCCC3(C)C)c2)c1 (single isomer, unassigned) [Example 80.6]"
10 to 100,100 to 1000,"CCCC(CC(=O)O)c1cccc(OCc2ccc(-c3cc(OC)ccc3F)c(C3CCCCC3)c2)c1 (single isomer, unassigned) [Example 67.8, (3R)-3-(3-(((2-Cyclohexyl-2′-fluoro-5′-(methyloxy)-1,1′-biphenyl-4-yl)methyl)oxy)phenyl)hexanoic acid or (3S)-3-(3-(((2-cyclohexyl-2′-fluoro-5′-(methyloxy)-1,1′-biphenyl-4-yl)methyl)oxy)phenyl)hexanoic acid]"
< 10,100 to 1000,"COc1ccc(F)c(-c2ccc(COc3cccc(C(CC(=O)O)CC4CC4)c3)cc2C(C)C(C)(C)C)c1 (single isomer, unassigned) [Example 69.22]"
< 10,100 to 1000,"COc1ccc(F)c(-c2ccc(COc3cccc(C(CC(=O)O)CC4CC4)c3)cc2C2CCCCCC2)c1 (single isomer, unassigned) [Example 69.1, (3R)-3-(3-(((2-Cycloheptyl-2′-fluoro-5′-(methyloxy)-1,1′-biphenyl-4-yl)methyl)oxy)phenyl)-4-cyclopropylbutanoic acid or (3S)-3-(3-(((2-cycloheptyl-2′-fluoro-5′-(methyloxy)-1,1′-biphenyl-4-yl)methyl)oxy)phenyl)-4-cyclopropylbutanoic acid]"
10 to 100,100 to 1000,"CCC(CC(=O)O)c1cc(OCc2ccc(-c3cc(OC)ccc3F)c(C3=CCCC3(C)C)c2)cc(C(F)(F)F)c1 (single isomer, unassigned) [Example 91, (3R)-3-(3-(((2-(5,5-Dimethyl-1-cyclopenten-1-yl)-2′-fluoro-5′-(methyloxy)-1,1′-biphenyl-4-yl)methyl)oxy)-5-(trifluoromethyl)phenyl)pentanoic acid or (3S)-3-(3-(((2-(5,5-dimethyl-1-cyclopenten-1-yl)-2′-fluoro-5′-(methyloxy)-1,1′-biphenyl-4-yl)methyl)oxy)-5-(trifluoromethyl)phenyl)pentanoic acid]"
100 to 1000,100 to 1000,"COc1ccc(F)c(-c2ccc(COc3cccc([C@@H](CC(=O)O)C4CC4)c3)cc2CN2[C@H](C)CC[C@H]2C)c1 (single isomer, unassigned) [Example 66.71, (3S)-3-Cyclopropyl-3-(3-(((2-(((2R,5R)-2,5-dimethyl-1-pyrrolidinyl)methyl)-2′-fluoro-5′-(methyloxy)-1,1′-biphenyl-4-yl)methyl)oxy)phenyl)propanoic acid or (3R)-3-cyclopropyl-3-(3-(((2-(((2R,5R)-2,5-dimethyl-1-pyrrolidinyl)methyl)-2′-fluoro-5′-(methyloxy)-1,1′-biphenyl-4-yl)methyl)oxy)phenyl)propanoic acid]"
10 to 100,100 to 1000,"CCc1cccc(-c2ccc(COc3cccc([C@@H](CC(=O)O)C4CC4)c3F)cc2[C@H]2CCCC2(C)C)c1 (single isomer, unassigned) [Example 83.28]"
10 to 100,100 to 1000,"CC1(C)CCC=C1c1cc(COc2cccc([C@@H](CC(=O)O)C3CC3)c2F)ccc1-c1cc(C(F)F)ccc1F (single isomer, unassigned) [Example 83.12, (3S)-3-Cyclopropyl-3-(3-(((5′-(difluoromethyl)-2-(5,5-dimethyl-1-cyclopenten-1-yl)-2′-fluoro-1,1′-biphenyl-4-yl)methyl)oxy)-2-fluorophenyl)propanoic acid or (3R)-3-cyclopropyl-3-(3-(((5′-(difluoromethyl)-2-(5,5-dimethyl-1-cyclopenten-1-yl)-2′-fluoro-1,1′-biphenyl-4-yl)methyl)oxy)-2-fluorophenyl)propanoic acid]"
10 to 100,100 to 1000,"COc1ccc(F)c(-c2ccc(COc3cccc(C(C)CC(=O)O)c3)cc2C2=CCC(C)(C)CC2)c1 (single isomer, unassigned) [Example 64.5, (3R)-3-(3-(((2-(4,4-Dimethyl-1-cyclohexen-1-yl)-2′-fluoro-5′-(methyloxy)-1,1′-biphenyl-4-yl)methyl)oxy)phenyl)butanoic acid or (3S)-3-(3-(((2-(4,4-dimethyl-1-cyclohexen-1-yl)-2′-fluoro-5′-(methyloxy)-1,1′-biphenyl-4-yl)methyl)oxy)phenyl)butanoic acid]"
< 10,100 to 1000,"COc1cc(-c2ccc(COc3cccc(C(CC(=O)O)CC4CC4)c3F)cc2C2CCCC2(C)C)c(F)cn1 (single isomer, unassigned) [Example 84.8]"
